Key:
Test in all cases: Apoptosis detection (Annexin V / PI)
Assay type in all cases: cell-based, human
[1] = test system: breast cancer MCF7 cells; conditions: 100 nmol/L, 48 h
Description: 1) MCF-7 cells with a cell density of more than 90% in 10 cm^2 dishes were plated in 12-well plates according to the cell growth rate, and transfected after 12 h, and the groups were divided as follows: • blank control group (4 wells): 200 uL of opti-MEM per well • negative control group (NC group) and experimental group (3 wells each): • A. 100 uL of opti-MEM and 2 uL of iMax were mixed well for 5 min • B. 100 uL of opti-MEM and 5 uL of small RNA (final concentration 100 nmol/L) were mixed well • C. solution A and solution B were mixed well and let stand for 15 min, and then was added to each well at a 200 uL system • Note: 100 uL of nuclease-free water was added to 2 nmol of small RNA dry powder for dissolution at a storage concentration of 20 umol/L
The supernatant and cells were collected after 48 h and washed twice with pre-chilled PBS. The 4 tubes of cells in the blank control group were added respectively with: (1) 200 uL of 1× binding buffer; (2) 200 uL of 1× binding buffer and 5 uL of Annexin V stain; (3) 200 uL of 1× binding buffer and 5 uL of PI stain; (4) 200 uL of 1× binding buffer, 5 uL of Annexin V stain and 5 uL of PI stain. […] The live cell population and the position of quadrant gate were selected according to the blank control group, and then the apoptosis of the NC group and the experimental group was detected. […]

[2] = test system: pancreatic cancer PANC-1 cells; conditions: 100 nmol/L, jetPRIME, 72 h
Description: (§1) 1) PANC-1 cells and BXPC-3 cells with a cell density of more than 90% in 10 cm^2 dishes were plated in 12-well plates according to the cell growth rate, and transfected after 12 h, and the groups were divided as follows: • blank control group (4 wells): 100 uL of jetPRIME Buffer per well • negative control group (NC group) and experimental group (3 wells each): 100 uL of jetPRIME Buffer was mixed well with 3 uL of jetPRIME reagent and 5 uL of small RNA for each well and let stand for 15 min, and then was added to each well at a 100 uL system (final concentration 100 nmol/L) • Note: 100 uL of nuclease-free water was added to 2 nmol of small RNA dry powder for dissolution at a storage concentration of 20 umol/L
(§2) The supernatant and cells were collected after 72 h and washed twice with pre-chilled PBS. The 4 tubes of cells in the blank control group were added respectively with: (1) 200 uL of 1× binding buffer; (2) 200 uL of 1× binding buffer and 5 uL of Annexin V stain; (3) 200 uL of 1× binding buffer and 5 uL of PI stain; (4) 200 uL of 1× binding buffer, 5 uL of Annexin V stain and 5 uL of PI stain. 200 uL of 1× binding buffer, 5 uL of Annexin V stain and 5 uL of PI stain were added to each tube of both the NC group and the experimental group. The mixture was mixed well and filtered through 300 mesh filters. The live cell population and the position of quadrant gate were selected according to the blank control group, and then the apoptosis of the NC group and the experimental group was detected.
as §1, with “mixed” for “mixed well”, “per” for “for each”

[3] = test system: pancreatic cancer BXPC-3 cells; conditions: 100 nmol/L, jetPRIME, 72 h
Description: as §1, §2
as §1, with “mixed” for “mixed well”, “per” for “for each”

Measured: apoptosis

MDM-sRNA-39: small RNA derived from Maytenus hookeri, sequence GGGAUUGUAGUUCAAUUGGUCAGAGCACC (listed as RNA, chemistry not given here)
promotes: all assays above

MDM-sRNA-163: small RNA derived from Maytenus hookeri, sequence UGACUCUAGUCCGACUUUGUGAAAUGACU (listed as RNA, chemistry not given here)
promotes: all assays above
